Assay [1] concerns the target T1, uPAR-expressing HEC-265 human endometrial adenocarcinoma cells (Homo sapiens, UniProt Q03405).
T1 construct: Cell surface uPAR-expressing HEC-265 human endometrial adenocarcinoma cells; host or cells: HEC-265
The assay can be described thus: Competitive FACS binding assay. The note with it: pIC50 category of FACS binding. Here is the method: In order to determine binding of compounds according to the present invention to uPAR-expressing cells, a competitive FACS binding assay was established.
Cell surface uPAR-expressing HEC-265 human endometrial adenocarcinoma cells (Japanese Collection of Research Bioresources, #JCRB1142) were cultured in MEM Eagle with stable glutamine (Pan Biotech, #P04-09500) including 15% fetal bovine serum (Pan Biotech, #P30-3306) and 100 U/ml penicillin and 100 µg/mL streptomycin (Pan Biotech, #P06-07100). Cells were detached with Cell Dissociation Buffer (Thermo Scientific, #13151014) and washed in FACS buffer (PBS (Pan Biotech, #P04-36500) including 1% BSA (SeraCare, #AP-4510-80). Cells were diluted in FACS buffer to a final concentration of 500.000 cells per ml and 200 µl of the cell suspension are transferred to a u-shaped non-binding 96-well plate (Greiner Bio-One, #650901).
For IC50 determination, cells were incubated with 10 nM Bio--Ttds--Ttds--Ttds--Ttds-D-Cha-FsrYLWS-NH2) in the presence of increasing concentrations of non-labeled test compounds at 4°C for 1 hour. Cells were washed twice in FACS buffer. An additional incubation step with 1 µg/mL APC-Streptavidin (Miltenyi; #130-106-791) in 50 µL FACS buffer for 30 minutes on ice was performed followed by two washes with FACS buffer. Cells were resuspended in 200 µl FACS buffer and analyzed in an Attune NxT flow cytometer. Median fluorescence intensities (APC channel) were calculated by Attune NxT software and plotted against peptide concentrations. Four parameter logistic (4PL) curve fitting and pIC50 calculations were performed using ActivityBase software.

Assay [2] deals with T2, human uPAR (uPAR-Fc) (Homo sapiens, UniProt Q03405).
T2 construct: comprising amino acids Leu23-Arg303 according to UniProt entry Q03405.1; purchased R&D Systems 10378-UK-100
In words: Surface plasmon resonance (SPR) assay, single cycle kinetics. The note with it: pKD category for uPAR SPR activity assay; uPAR-Fc on Protein A-Chip, 25°C; read-out: pKD CAT (converted). Type of assay: binding. Here is the method: Surface plasmon resonance (SPR) is an optical technique used to measure molecular interactions in real time. SPR occur when plane-polarized light hits a metal film under total internal reflection conditions. SPR signal is directly dependent on the refractive index of the medium on the sensor chip. In an SPR experiment, one molecule (i.e. uPAR) is immobilized on a sensor chip and binding to a second molecule (i.e. test compounds) is measured under flow. The binding of the compound on the surface changes the refractive index. In responses the reflection angle changes as compounds bind and dissociate on the immobilized protein on the surface. This response is measured in resonance units (RU). The RUs are proportional to the number of molecules bound to the surface. […] Kinetic binding constants and equilibrium binding constants can be derived from the sensorgrams.
Surface plasmon resonance (SPR) studies were performed using a Biacore™ T200 or S200 SPR system (Cytiva, formerly GE Life Sciences) to assess binding of compounds to recombinant uPAR protein.
In this example recombinant protein comprising the extracellular domains of human uPAR (uPAR-Fc, R&D Systems, CAT 10378-UK-100, comprising amino acids Leu23-Arg303 according to UniProt entry Q03405.1 and Fc region of human IgG1 at the C-terminus) was immobilized on a Protein A-Chip (Cytiva, CAT 29127555) according to the supplier's instructions. uPAR-Fc was diluted in Running Buffer (10 mM HEPES, 150 mM NaCl, 50 µM EDTA, 0.1% DMSO, 0.05% Tween-20, pH 7.4) to a final concentration of 100 nM and then flushed over the Protein A-Chip to immobilized ~2000 RUs.
Stock solutions of test compounds were prepared by dissolving each compound in DMSO. DMSO stock solution were diluted 1: 1000 in Running Buffer without DMSO. Further sequential dilutions were made with Running Buffer containing 0.1% DMSO. SPR binding analyses were performed in Single Cycle Kinetic (SCK) mode at 25°C. Flow cell without immobilized uPAR-Fc served as reference flow cell. The chip was regenerated with 10 mM Glycine, pH 1,5 to remove the uPAR-Fc from the chip surface after each SCK run. After every three SCK measurements, a blank run with Running Buffer instead of test compound was included to correct for baseline drifts (double reference substraction method). Table 11: SPR protocol steps for SCK with uPAR-Fc immobilized on a Protein A-Chip.
For each test compound, SPR raw data sensorgrams were recorded using the Biacore™ T200 or S200 control software. Sensorgrams were processed and analyzed with the Biacore™ Insight Evaluation software. […] The reference subtracted sensorgram for each test compound was further corrected for baseline drift by subtracting the sensorgram of a reference subtracted blank run (Running Buffer only). The dissociation constant (KD) was calculated from the double reference subtracted sensorgrams using the 1:1 Langmuir binding model. The pKD value (negative decadic logarithm of dissociation constant) was calculated using Microsoft Excel.
On the technique in general: SPR reads the build-up and loss of mass on a sensor chip optically.

In general, IC50 refers to the concentration at which inhibition is half-maximal. The low end stands for greater potency in that assay, the high end for weaker potency in that assay.

Where a SMILES comes first, the peptide text is derived from it. Bridges are numbered along the chain shown (N, C = ends). [ ]: non-standard residue; d: D form. The star is where a group is joined. DOTA = O=C(O)CN1CCN(CC(=O)O)CCN(CC(=O)*)CCN(CC(=O)O)CC1; Pro(cis-4-F) = O=C(O)[C@@H]1C[C@H](F)CN1; Hyp = O=C(O)[C@@H]1C[C@@H](O)CN1; Pentanoyl(4-Me) = CC(C)CCC(=O)*; 2Thi = N[C@@H](Cc1cccs1)C(=O)O; Cit = NC(=O)NCCC[C@H](N)C(=O)O; Butoxycarbonyl = CCCCOC(=O)*; NMeC = CN[C@@H](CS)C(=O)O; Nle = CCCC[C@H](N)C(=O)O; Nva = CCC[C@H](N)C(=O)O; Hexanoyl = CCCCCC(=O)*; Pentanoyl = CCCCC(=O)*; Butyryl = CCCC(=O)* Where only a bound is given, the exact number is not on record here.

T1 sequence (Q03405 23-335): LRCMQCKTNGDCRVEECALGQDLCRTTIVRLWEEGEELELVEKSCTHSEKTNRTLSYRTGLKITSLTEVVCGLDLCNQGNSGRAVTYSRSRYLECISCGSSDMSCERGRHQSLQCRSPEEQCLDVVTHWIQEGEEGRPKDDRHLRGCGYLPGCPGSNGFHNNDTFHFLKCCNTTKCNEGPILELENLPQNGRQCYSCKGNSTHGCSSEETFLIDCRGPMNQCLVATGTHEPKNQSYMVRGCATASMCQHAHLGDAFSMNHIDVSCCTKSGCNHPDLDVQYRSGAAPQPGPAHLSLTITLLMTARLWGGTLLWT
T2 sequence (Q03405 23-303): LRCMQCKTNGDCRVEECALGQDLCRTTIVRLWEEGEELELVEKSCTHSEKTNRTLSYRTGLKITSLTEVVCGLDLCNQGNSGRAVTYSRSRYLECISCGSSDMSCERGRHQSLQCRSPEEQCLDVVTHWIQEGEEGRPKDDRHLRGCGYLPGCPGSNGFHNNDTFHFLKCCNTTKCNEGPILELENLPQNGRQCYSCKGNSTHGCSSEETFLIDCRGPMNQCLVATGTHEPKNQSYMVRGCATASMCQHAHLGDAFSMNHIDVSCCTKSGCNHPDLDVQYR

In assay [1], `CCCC[C@@H]1NC(=O)[C@H](CCCNC(=N)N)NC(=O)[C@@H](NC(=O)[C@H](CC(C)C)NC(=O)[C@@H](CC(=O)O)NC(C)=O)CSSC[C@@H](C(N)=O)NC(=O)[C@H](CC(C)C)NC(=O)[C@H]([C@@H](C)CC)NC(=O)[C@H](C)NC(=O)[C@@H]2CCCN2C(=O)[C@H](Cc2ccccc2)NC(=O)[C@H](Cc2ccc(O)cc2)NC1=O` [UPAR-133, Ac-asp-Leu-[Cys-Arg-Nle-Tyr-Phe-Pro-Ala-Ile-Leu-Cys]-NH2] (Ac-[dD]LCR[Nle]YFPAILC-NH2; disulfide 3-12) had an IC50 not above 10 nM. Besides, the Kd in assay [2] was less than 1.58 nM.
In assay [1], `CCCCOC(=O)N[C@H]1CSSC[C@@H](C(N)=O)NC(=O)[C@H](CCC)NC(=O)[C@H]([C@@H](C)CC)NC(=O)[C@@H]2C[C@@H](O)CN2C(=O)[C@@H]2CCCN2C(=O)[C@H](Cc2cccs2)NC(=O)[C@H](Cc2ccc(O)cc2)NC(=O)[C@H](CCCCNC(=O)CN2CCN(CC(=O)O)CCN(CC(=O)O)CCN(CC(=O)O)CC2)NC(=O)[C@H]([C@@H](C)O)NC1=O` [UPAR-134, Butoc-[Cys-Thr-Lys(DOTA)-Tyr-Thi-Pro-Hyp-Ile-Nva-Cys]-NH2] (Butoxycarbonyl-CTK(DOTA)Y[2Thi]P[Hyp]I[Nva]C-NH2; disulfide 1-10) had an IC50 not above 10 nM. Besides, the Kd in assay [2] was less than 1.58 nM.
Taken in the same sequence, the figures for `CCCCC(=O)N[C@H]1CSSC[C@@H](C(N)=O)NC(=O)[C@H](CCC)NC(=O)[C@H]([C@@H](C)CC)NC(=O)[C@@H]2C[C@@H](O)CN2C(=O)[C@@H]2C[C@@H](O)CN2C(=O)[C@H](Cc2ccccc2)NC(=O)[C@H](Cc2ccc(O)cc2)NC(=O)[C@H](CCCCNC(=O)CN2CCN(CC(=O)O)CCN(CC(=O)O)CCN(CC(=O)O)CC2)NC(=O)[C@H]([C@@H](C)O)NC1=O` [UPAR-135, Pent-[Cys-Thr-Lys(DOTA)-Tyr-Phe-Hyp-Hyp-Ile-Nva-Cys]-NH2] (Pentanoyl-CTK(DOTA)YF[Hyp][Hyp]I[Nva]C-NH2; disulfide 1-10) were not above 10 nM and less than 1.58 nM.
Taken in the same sequence, the figures for `CCC[C@@H]1NC(=O)[C@@H](C)NC(=O)[C@@H]2CCCN2C(=O)[C@H](Cc2ccccc2)NC(=O)[C@H](Cc2ccc(O)cc2)NC(=O)[C@H](CCC(N)=O)NC(=O)[C@H](CCCNC(N)=O)NC(=O)[C@@H](NC(=O)CCC(C)C)CSSC[C@@H](C(N)=O)NC(=O)[C@H](CC(C)C)NC1=O` [UPAR-136, iHex-[Cys-Cit-Gln-Tyr-Phe-Pro-ala-Nva-Leu-Cys]-NH2] ({Pentanoyl(4-Me)}-C[Cit]QYFP[dA][Nva]LC-NH2; disulfide 1-10) were not above 10 nM and 1.58 to 10 nM.
Regarding `CCCC[C@@H]1NC(=O)[C@H](CCCNC(=N)N)NC(=O)[C@@H](NC(=O)[C@H](CC(C)C)NC(=O)[C@H](CC(=O)O)NC(C)=O)CSSC[C@@H](C(N)=O)NC(=O)[C@@H](CC(C)C)NC(=O)[C@H]([C@@H](C)CC)NC(=O)[C@H](C)NC(=O)[C@@H]2CCCN2C(=O)[C@H](Cc2ccccc2)NC(=O)[C@H](Cc2ccc(O)cc2)NC1=O` [UPAR-137, Ac-Asp-Leu-[Cys-Arg-Nle-Tyr-Phe-Pro-Ala-Ile-leu-Cys]-NH2] (Ac-DLCR[Nle]YFPAI[dL]C-NH2; disulfide 3-12), the half-inhibitory concentration (IC50) in assay [1] was 12.6 to 31.6 nM. Besides, the Kd in assay [2] is 1.58 to 10 nM.
For the compound `CCCC(=O)N[C@H]1CSSC[C@@H](C(N)=O)NC(=O)[C@H](CC(C)C)NC(=O)[C@H]([C@@H](C)CC)NC(=O)[C@@H](C)NC(=O)[C@@H]2CCCN2C(=O)[C@H](Cc2ccccc2)NC(=O)[C@H](Cc2ccc(O)cc2)NC(=O)[C@H](CCC(N)=O)NC(=O)[C@H](CCCNC(N)=O)NC1=O` [UPAR-139, But-[Cys-Cit-Gln-Tyr-Phe-Pro-ala-Ile-Leu-Cys]-NH2] (Butyryl-C[Cit]QYFP[dA]ILC-NH2; disulfide 1-10), in assay [1], the IC50 is 12.6 to 31.6 nM. In addition, the Kd in assay [2] was 1.58 to 10 nM.
Taken in the same sequence, the figures for `CCCCCC(=O)N[C@@H](CCCCNC(=O)CN1CCN(CC(=O)O)CCN(CC(=O)O)CCN(CC(=O)O)CC1)C(=O)N[C@@H](CC(C)C)C(=O)N[C@H]1CSSC[C@@H](C(N)=O)NC(=O)[C@H](CC(C)C)NC(=O)[C@H]([C@@H](C)CC)NC(=O)[C@H](C)NC(=O)[C@@H]2CCCN2C(=O)[C@H](Cc2ccccc2)NC(=O)[C@H](Cc2ccc(O)cc2)NC(=O)[C@H](CCSC)NC(=O)[C@H](CCCNC(=N)N)NC1=O` [UPAR-140, Hex-Lys(DOTA)-Leu-[Cys-Arg-Met-Tyr-Phe-Pro-Ala-Ile-Leu-Cys]-NH2] (Hexanoyl-K(DOTA)LCRMYFPAILC-NH2; disulfide 3-12) were not above 10 nM and less than 1.58 nM.
Taken in the same sequence, the figures for `CCCCOC(=O)N[C@H]1CSSC[C@@H](C(=O)N[C@@H](CC(=O)O)C(N)=O)NC(=O)[C@H](CCC)NC(=O)[C@H]([C@@H](C)CC)NC(=O)[C@@H]2C[C@@H](O)CN2C(=O)[C@@H]2C[C@H](F)CN2C(=O)[C@H](Cc2ccccc2)NC(=O)[C@H](Cc2ccc(O)cc2)NC(=O)[C@H](CCCCNC(=O)CN2CCN(CC(=O)O)CCN(CC(=O)O)CCN(CC(=O)O)CC2)NC(=O)[C@H]([C@@H](C)O)NC1=O` [UPAR-141, Butoc-[Cys-Thr-Lys(DOTA)-Tyr-Phe-4Cfp-Hyp-Ile-Nva-Cys]-Asp-NH2] (Butoxycarbonyl-CTK(DOTA)YF[Pro(cis-4-F)][Hyp]I[Nva]CD-NH2; disulfide 1-10) were 39.8 to 100 nM and 10 to 100 nM.
Compound `CCC[C@@H]1NC(=O)[C@H]([C@@H](C)CC)NC(=O)[C@@H]2C[C@@H](O)CN2C(=O)[C@@H]2CCCN2C(=O)[C@H](Cc2ccccc2)NC(=O)[C@H](Cc2ccc(O)cc2)NC(=O)[C@H](CCC(N)=O)NC(=O)[C@H](CCCNC(N)=O)NC(=O)[C@@H](N(C)C(=O)[C@H](CC(C)C)NC(=O)CN2CCN(CC(=O)O)CCN(CC(=O)O)CCN(CC(=O)O)CC2)CSSC[C@@H](C(N)=O)NC1=O` [UPAR-142, DOTA-Leu-[Nmc-Cit-Gln-Tyr-Phe-Pro-Hyp-Ile-Nva-Cys]-NH2] ({DOTA}-L[NMeC][Cit]QYFP[Hyp]I[Nva]C-NH2; disulfide 2-11) gave an IC50 in assay [1] not below 126 nM. The Kd in assay [2] is 10 to 100 nM.
In assay [1], `CCCCCC(=O)N[C@H](C(=O)N[C@@H](CC(C)C)C(=O)N[C@H]1CSSC[C@@H](C(N)=O)NC(=O)[C@H](CC(C)C)NC(=O)[C@H]([C@@H](C)CC)NC(=O)[C@H](C)NC(=O)[C@@H]2CCCN2C(=O)[C@H](Cc2ccccc2)NC(=O)[C@H](Cc2ccc(O)cc2)NC(=O)[C@H](Cc2ccc(O)cc2)NC(=O)[C@H](CCC(=O)O)NC1=O)[C@@H](C)O` [UPAR-143, Hex-Thr-Leu-[Cys-Glu-Tyr-Tyr-Phe-Pro-Ala-Ile-Leu-Cys]-NH2] (Hexanoyl-TLCEYYFPAILC-NH2; disulfide 3-12) showed an IC50 not above 10 nM. In assay [2], the Kd was less than 1.58 nM.
